Read-outs that look alike come from different tables or passages of the source.
Legend:
HepG2 cells [1] = conditions: read-out: IC50 (cytotoxicity in HepG2 cells); conventional oximes; cited from earlier work
HepG2 cells [2] = experiment: Intracellular RONS detection with DHE fluorescent probe; assay type: cell-based, human; conditions: IC50 concentration; for increase of free radicals/RONS (DHE probe) vs negative control: 1 h incubation
Method: (§1) Two different fluorescent dyes, i.e., 2,7-dichlorodihydrofluorescein diacetate (DCFH-DA, Cayman Chemicals Company, Ann Arbor, MI) and dihydroethidium (DHE, Sigma-Aldrich, St. Louis, MO) were utilized for the determination of intracellular levels of RONS after 1, 4, and 24 h of incubation with tested oxime reactivators or TBHP (positive control). Cells incubated with oxime-free DMEM represented untreated control. After the incubation, the experimental medium was removed and replaced with a solution of DCFH-DA or DHE at concentrations of 20 and 5 μmol/L, respectively. The cells were subsequently incubated at 37 °C in a CO2 incubator for 45 min. Afterward, the fluorescence intensity of each well was measured using a Spark multimode microplate reader at an excitation wavelength of 485 nm for DCFH-DA or 528 nm for the DHE probe and an emission wavelength of 535 or 590 nm, respectively. Each experiment was carried out in triplicate and repeated three independent times.
(§2) The toxicological indices IC50 were calculated from control-subtracted triplicates using nonlinear regression (four parameters) using GraphPad Prism 9 software version 9.3.0 (GraphPad Software Inc., San Diego, CA). One-way analysis of variance (ANOVA) followed by Dunnetʼs multiple comparison test was used for RONS, MDA, NP-SH, and NP-SS-NP statistical analysis by GraphPad Prism 9 software, version 9.3.0. Data are expressed as means ± standard deviation (SD) of three independent measurements (n = 3). Significant differences between oxime-treated and untreated control groups (p ≤ 0.05) were marked by an asterisk (*).

rat plasma = conditions: in vivo, 23 mg/kg; cited from earlier work
HepG2 cells [3] = experiment: Flow cytometric detection of cell death (Annexin V & Dead Cell Assay); assay type: cell-based, human; conditions: IC50 concentration
Excerpt: 2. Flow cytometric detection of cell death
The microcapillary flow cytometry (Muse™ Cell Analyzer, Luminex, Austin, TX) was used to determine cell death.
This method is based on detecting externalization of phosphatidylserine on the surface of cells undergoing apoptosis.
The technique allows quantitative analysis of non-apoptotic, early apoptotic, late apoptotic, and necrotic cells. The reagent mixture also contains the membrane non-permeable dye 7-aminoactinomycin D. This component distinguishes necrotic and late apoptotic cells from the live and early apoptotic cells. The measurement of cell death was carried out according to manufacturer instructions after 1, 4, and 24 h incubation with tested oxime reactivators and with oxime-free medium as an untreated control. During the first day of the experiment, cells were seeded into a 24-well plate (TPP) with a density of […]. After the incubation, cells from each well were collected into the polystyrene tube (TPP) and centrifuged for 5 min at 1000 × g at room temperature. The supernatant was discarded. The cell suspensions […]
were prepared in fresh medium DMEM. Afterward 100 μL of cell suspension were mixed with the 100 μL of Muse™ Annexin V & Dead Cell Assay reagent, and the samples were incubated for 20 min at room temperature in the dark.
Per measurement, 5000 cells were analyzed. Each experiment was performed in triplicates and repeated three independent times. The concentration of K048, K074, K075, and K203 oximes and TBHP (positive control) used in […]
After 1 h of incubation (Figure S-1.) with tested oxime reactivators and TBHP as the positive control, the percentage […]
A significant change in the percentage of
The amount of early apoptotic cells
. On the other hand, the percentage of late apoptotic cells was […]
control cells. The count of late apoptotic cells enlarged by 7.74, 4.71 , 4.17, 4.13, and 3.20 %, respectively. The statistical differences were also found in the percentage of necrotic cells in this time interval. The highest increment […]
K048, K074, K075, and K203 groups when compared with control.
K075, and K203 treated groups, respectively, when compared with control. Finally, the percentage of necrotic cells […]
Fig. S-1 The percentage of intact (white column), early (light grey column), late apoptotic (dark grey column), and necrotic HepG2 cells (black column) determined using microcapillary flow cytometry after 1 h, 4 h and 24 h treatment with oxime acetylcholinesterase reactivators or TBHP (positive control). Control represents the cells incubated with an oxime-free culture medium. One-way analysis of variance (ANOVA) followed by Dunnetʼs multiple comparison test was used for statistical analysis by GraphPad Prism 9 software version 9.3.0. Data are expressed as means ± standard deviation (SD) of three independent measurements (n = 3). Significant differences between oxime-treated and untreated control groups (p ≤ 0.05) and marked by asterisk (*).
3. Stability of oximes in DMEM medium at 37 °C over 24 hours
The stability of oximes K048, K074, K075, and K203 in DMEM medium, with concentrations corresponding to their […]
UV, following the chromatographic conditions described by Vanova et al. (2021)13. The results over the tested time […]
Fig. S-2 Data are expressed in percentage as means ± standard deviation (SD) of three independent measurements […]

HepG2 cells [4] = experiment: Intracellular nonprotein thiols (NP-SH) by HPLC-UV; assay type: cell-based, human; conditions: IC50 concentration
Method: (§3) The culture medium was removed from a 25 cm^2 culture flask on the day of the experiment, and cells were washed twice with 3 mL of phosphate-buffered saline (PBS; GE Healthcare Life Sciences, South Logan, UT). Subsequently, 3 mL of a plain DMEM medium (negative control) and a DMEM medium containing TBHP (positive control) or individual oximes were added to each flask, and cells were incubated for 1, 4, and 24 h. The concentration of individual oxime and TBHP in the DMEM medium corresponded to the IC50 value. After incubation, the experimental medium was removed, and cells were washed with 3 mL of PBS and harvested by scraping. The resulting suspension was centrifuged at 220g and 21 °C for 5 min (Universal 320R centrifuge, Hettich, Tuttlingen, Germany). The supernatant was removed and dried cell pellets were stored at −80 °C. Each experiment was carried out in three independent replicates.
(§4) The cell pellets were thawed at room temperature, resuspended in 500 μL of ultrapure water (Millipore Purification System, Merck, Millipore, Darmstadt, Germany), and sonicated for 2 min (2 s cycle, amplitude 20%) in a Q500 homogenizer (QSONICA Sonicators, Newton). Then, the homogenate was divided into three parts: 250 μL for the determination of malondialdehyde (MDA), 100 μL for each determination of nonprotein thiols (NP-SH) and disulfides (NP-SS-NP), and 10 μL for the Bradford protein assay.
(§5) The HepG2 cell homogenate obtained, as described in Section 2.6, was processed for the determination of intracellular NP-SH and NP-SS-NP, according to Muckova et al.[11] The samples were analyzed using the HPLC system described above equipped with an SPD 20-AV Prominence UV/vis detector. The analysis was carried out on a Phenomenex LUNA C18 column (150 mm × 3 mm, 3 μm, 100 Å) protected with a Security Cartridge (4 mm × 2 mm, Phenomenex, Torrance) at 30 °C and a constant flow rate of 0.330 mL/using the mobile phase consisting of 0.9% aqueous FA (A) and ACN (B) under gradient conditions: 0–1 min 12% B, 1.1–2 min 12–55% B, 2–7 min 55% B, 7.1 min 55% B, and 7.1–10 min 12% B. The detector was set at 326 nm and the sample injection volume was 20 μL.

HepG2 cells [5] = conditions: from 15 min after simultaneous incubation with TBHP (IC50 concentration); oximes about 10-fold below IC50; cited from earlier work
HepG2 cells [6] = experiment: Colorimetric MTT cell viability assay, 24 h; conditions: read-out: IC50 (cytotoxicity, MTT assay), 24 h incubation
HepG2 cells [7] = experiment: Intracellular nonprotein disulfides (NP-SS-NP) by HPLC-UV; assay type: cell-based, human; conditions: IC50 concentration
Method: as §3, §4, §5

HepG2 cells [8] = experiment: Intracellular RONS detection with DCFH-DA fluorescent probe; assay type: cell-based, human; conditions: IC50 concentration
Method: as §1, §2

HepG2 cells [9] = experiment: Total intracellular MDA by LC-MS/MS; assay type: cell-based, human; conditions: IC50 concentration
[10] = Colorimetric MTT cell viability assay, 24 h; conditions: human, HepG2 cells, IC50 (cytotoxicity, MTT assay), 24 h incubation

SMILES: NC(=O)c1cc[n+](COC[n+]2ccccc2/C=N/O)cc1 [HI-6, asoxime]
- IC50 (HepG2 cells [1]): ~3 mM

SMILES: NC(=O)c1cc[n+](C/C=C/C[n+]2ccc(C=NO)cc2)cc1.[Br-].[Br-] [K203, 4-carbamoyl-1-((2E)-4-(4-((hydroxyimino)methyl)pyridin-1-ium-1-yl)but-2-en-1-yl)pyridin-1-ium dibromide]
- increase of free radicals/RONS (DHE probe) vs negative control (HepG2 cells [2]): 8.5%
- increase of RONS (DHE probe) vs negative control (HepG2 cells [2]; 24 h incubation): 22.1%
- low-molecular-weight antioxidants (LMWAs) in plasma (rat plasma): increase
- decrease in percentage of intact (live) cells vs control (HepG2 cells [3]; 1 h): ~8.43%
- increase in early apoptotic cells vs control (HepG2 cells [3]; 1 h): ~1.51%
- increase in late apoptotic cells vs control (HepG2 cells [3]; 1 h): 4.13%
- decrease in percentage of live cells vs control (HepG2 cells [3]; 4 h): 8.8%
- increase in late apoptotic cells vs control (HepG2 cells [3]; 4 h): 4.24%
- increase in necrotic cell population vs control (HepG2 cells [3]; 4 h): 1.74%
- decrease in percentage of intact cells vs control (HepG2 cells [3]; 24 h): 46.6%
- increase in early apoptotic cells vs control (HepG2 cells [3]; 24 h): 13.3%
- increase in late apoptotic cells vs control (HepG2 cells [3]; 24 h): 32.9%
- decrease in NP-SH levels vs untreated control (HepG2 cells [4]; 1 h): 17.4%
- decrease in NP-SH levels vs untreated control (HepG2 cells [4]; 24 h): 12.1%
- reduction of ROS production (HepG2 cells [5]): 98%
- IC50 (HepG2 cells [6]): 2.05 mM
- resulting NP-SS-NP levels (in words) (HepG2 cells [7]; within the 24 h time frame): insignificant
- increase of RONS (DCFH-DA probe) vs negative control (HepG2 cells [8]; 1 h incubation): 39.2%
- increase of RONS (DCFH-DA probe) vs negative control (HepG2 cells [8]; 4 h incubation): 39.2%
- increase of RONS (DCFH-DA probe) vs negative control (HepG2 cells [8]; 24 h incubation): 22.8%
- resulting MDA levels (in words) (HepG2 cells [9]; within the 24 h time frame): insignificant

SMILES: O/N=C/c1cc[n+](COC[n+]2ccc(/C=N/O)cc2)cc1 [LüH-6, obidoxime]
- IC50 (HepG2 cells [1]): ~4 mM

SMILES: O/N=C/c1cc[n+](C[n+]2ccc(/C=N/O)cc2)cc1 [MMB-4, methoxime]
- IC50 (HepG2 cells [1]): ~1 mM

SMILES: CC(C)(C)OO [TBHP, tert-butyl hydroperoxide, reference compound]
- increase of free radicals/RONS (DHE probe) vs negative control (HepG2 cells [2]): 30.7%
- increase of RONS (DHE probe) vs negative control (HepG2 cells [2]; 4 h incubation): 111%
- decrease in percentage of intact (live) cells vs control (HepG2 cells [3]; 1 h): ~11.6%
- increase in late apoptotic cells vs control (HepG2 cells [3]; 1 h): 7.74%
- increase in necrotic cells vs control (HepG2 cells [3]; 1 h): 3.24%
- decrease in percentage of live cells vs control (HepG2 cells [3]; 4 h): 14.6%
- increase in early apoptotic cells vs control (HepG2 cells [3]; 4 h): 1.02%
- increase in late apoptotic cells vs control (HepG2 cells [3]; 4 h): 9.79%
- increase in necrotic cell population vs control (HepG2 cells [3]; 4 h): 3.77%
- decrease in percentage of intact cells vs control (HepG2 cells [3]; 24 h): 42.7%
- increase in early apoptotic cells vs control (HepG2 cells [3]; 24 h): 7.42%
- increase in late apoptotic cells vs control (HepG2 cells [3]; 24 h): 31.6%
- increase in necrotic cells vs control (HepG2 cells [3]; 24 h): 3.66%
- decrease in NP-SH levels vs untreated control (HepG2 cells [4]; 1 h): 24.6%
- decrease in NP-SH levels vs untreated control (HepG2 cells [4]; 4 h): 45.0%
- decrease in NP-SH levels vs untreated control (HepG2 cells [4]; 24 h): 53.1%
- IC50 at 24 h [10]: 0.13 mM
- increase in NP-SS-NP levels vs untreated control (HepG2 cells [7]; 1 h): 69.6%
- increase in NP-SS-NP levels vs untreated control (HepG2 cells [7]; 4 h): 119%
- increase in NP-SS-NP levels vs untreated control (HepG2 cells [7]; 24 h): 166%
- increase of RONS (DCFH-DA probe) vs negative control (HepG2 cells [8]; 1 h incubation): 16.7%
- decrease of RONS (DCFH-DA probe) vs negative control (HepG2 cells [8]; 24 h incubation): 47.6%
- increase of MDA levels vs untreated control (HepG2 cells [9]; 4 h incubation): 36.1%
- increase of MDA levels vs untreated control (HepG2 cells [9]; 24 h exposure): 96.6%

SMILES: O/N=C/c1cc[n+](CCC[n+]2ccc(/C=N/O)cc2)cc1 [TMB-4, trimedoxime]
- IC50 (HepG2 cells [1]): ~22 mM

SMILES: N[C@@H](CCC(=O)N[C@@H](CS)C(=O)NCC(=O)O)C(=O)O [reduced glutathione, glutathione, reference compound]
- reduction of ROS production (HepG2 cells [5]): 87%

— publication PMC10731658 (Chemical Research in Toxicology, 2023)
